# From patent EP4745137A1 (Gluetacs Therapeutics (Shanghai) Co., Ltd., priority 2023, dated 2025)
# Experiments:
# WEE1 = molecular target: T1, WEE1 (Homo sapiens, UniProt P30291+Q96SW2); assay: Western-blot assay of substrate protein degradation in hPBMCs, WEE1; assay type: cell-based; settings: 24 hours of compound treatment, 50 nM and 500 nM tested (concentration behind the class not stated)
# T1 construct: endogenous in cells; host or cells: hPBMCs (Milecell Biotechnologies)
# IKZF1 = molecular target: T2, IKZF1 (Homo sapiens, UniProt Q13422+Q96SW2); assay: Western-blot assay of substrate protein degradation in hPBMCs, IKZF1; assay type: cell-based; settings: 24 hours of compound treatment, 50 nM and 500 nM tested (concentration behind the class not stated)
# T2 construct: endogenous in cells; host or cells: hPBMCs (Milecell Biotechnologies)
# IKZF2 = molecular target: T3, IKZF2 (Homo sapiens, UniProt Q96SW2+Q9UKS7); assay: Western-blot assay of substrate protein degradation in hPBMCs, IKZF2; assay type: cell-based; settings: 24 hours of compound treatment, 50 nM and 500 nM tested (concentration behind the class not stated)
# T3 construct: endogenous in cells; host or cells: hPBMCs (Milecell Biotechnologies)
# T3 sequence (Q9UKS7 whole entry): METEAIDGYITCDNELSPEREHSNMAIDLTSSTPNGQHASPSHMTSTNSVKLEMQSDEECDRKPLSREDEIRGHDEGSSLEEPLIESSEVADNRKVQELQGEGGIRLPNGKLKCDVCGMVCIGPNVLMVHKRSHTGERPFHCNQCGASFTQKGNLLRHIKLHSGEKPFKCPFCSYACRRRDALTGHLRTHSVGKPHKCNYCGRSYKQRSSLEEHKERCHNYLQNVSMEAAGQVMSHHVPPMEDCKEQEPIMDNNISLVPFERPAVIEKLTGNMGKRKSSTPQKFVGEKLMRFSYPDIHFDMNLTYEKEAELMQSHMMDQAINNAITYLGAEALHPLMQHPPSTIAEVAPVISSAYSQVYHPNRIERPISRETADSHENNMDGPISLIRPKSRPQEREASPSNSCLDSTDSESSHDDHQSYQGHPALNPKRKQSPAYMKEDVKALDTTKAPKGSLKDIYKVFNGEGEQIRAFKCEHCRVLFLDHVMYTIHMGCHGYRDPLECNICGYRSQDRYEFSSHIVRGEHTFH
# T3 sequence (Q96SW2 whole entry): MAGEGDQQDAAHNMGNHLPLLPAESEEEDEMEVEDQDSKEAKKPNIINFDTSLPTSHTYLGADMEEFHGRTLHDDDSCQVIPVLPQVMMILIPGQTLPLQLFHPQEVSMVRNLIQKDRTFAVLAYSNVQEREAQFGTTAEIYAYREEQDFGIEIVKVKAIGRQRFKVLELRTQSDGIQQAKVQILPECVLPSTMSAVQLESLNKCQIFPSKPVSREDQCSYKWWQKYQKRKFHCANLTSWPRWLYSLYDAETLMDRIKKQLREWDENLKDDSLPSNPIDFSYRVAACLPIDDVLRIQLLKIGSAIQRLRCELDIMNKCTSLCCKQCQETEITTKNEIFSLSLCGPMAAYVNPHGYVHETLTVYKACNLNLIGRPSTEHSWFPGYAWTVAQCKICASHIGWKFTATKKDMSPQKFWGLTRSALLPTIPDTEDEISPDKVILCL
# T3 sequence (Q16531 whole entry partner): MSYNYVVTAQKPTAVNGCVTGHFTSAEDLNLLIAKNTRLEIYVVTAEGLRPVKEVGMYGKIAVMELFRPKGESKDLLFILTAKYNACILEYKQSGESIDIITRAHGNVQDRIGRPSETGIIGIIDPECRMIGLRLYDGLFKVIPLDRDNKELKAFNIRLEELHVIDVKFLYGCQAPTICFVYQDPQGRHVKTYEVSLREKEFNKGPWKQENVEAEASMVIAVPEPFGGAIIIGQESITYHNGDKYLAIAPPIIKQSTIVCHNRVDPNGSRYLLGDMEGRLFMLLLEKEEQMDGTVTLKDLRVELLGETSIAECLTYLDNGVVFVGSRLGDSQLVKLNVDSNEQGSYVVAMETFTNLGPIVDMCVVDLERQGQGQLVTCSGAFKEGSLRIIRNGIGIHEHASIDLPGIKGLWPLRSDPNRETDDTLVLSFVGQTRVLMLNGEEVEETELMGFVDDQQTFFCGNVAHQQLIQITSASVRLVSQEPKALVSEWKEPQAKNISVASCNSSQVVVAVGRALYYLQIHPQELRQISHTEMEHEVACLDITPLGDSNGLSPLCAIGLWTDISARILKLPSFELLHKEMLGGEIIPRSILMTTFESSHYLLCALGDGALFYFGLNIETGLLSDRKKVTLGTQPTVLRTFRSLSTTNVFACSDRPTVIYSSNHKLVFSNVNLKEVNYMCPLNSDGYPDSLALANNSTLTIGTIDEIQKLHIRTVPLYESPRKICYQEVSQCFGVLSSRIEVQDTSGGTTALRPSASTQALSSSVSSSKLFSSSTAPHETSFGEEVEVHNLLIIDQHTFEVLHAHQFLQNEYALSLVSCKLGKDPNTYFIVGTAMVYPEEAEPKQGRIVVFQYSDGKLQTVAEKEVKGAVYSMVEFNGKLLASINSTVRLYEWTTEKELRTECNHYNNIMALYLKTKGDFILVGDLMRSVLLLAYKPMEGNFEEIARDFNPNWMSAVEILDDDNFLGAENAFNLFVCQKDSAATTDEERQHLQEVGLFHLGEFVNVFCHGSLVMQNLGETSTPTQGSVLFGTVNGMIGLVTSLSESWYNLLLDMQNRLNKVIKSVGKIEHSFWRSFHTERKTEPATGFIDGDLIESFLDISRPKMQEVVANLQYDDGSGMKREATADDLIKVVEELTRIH
# IKZF3 = molecular target: T4, IKZF3 (Homo sapiens, UniProt Q96SW2+Q9UKT9); assay: Western-blot assay of substrate protein degradation in hPBMCs, IKZF3; assay type: cell-based; settings: 24 hours of compound treatment, 50 nM and 500 nM tested (concentration behind the class not stated)
# T4 construct: endogenous in cells; host or cells: hPBMCs (Milecell Biotechnologies)
# T4 sequence (Q9UKT9 whole entry): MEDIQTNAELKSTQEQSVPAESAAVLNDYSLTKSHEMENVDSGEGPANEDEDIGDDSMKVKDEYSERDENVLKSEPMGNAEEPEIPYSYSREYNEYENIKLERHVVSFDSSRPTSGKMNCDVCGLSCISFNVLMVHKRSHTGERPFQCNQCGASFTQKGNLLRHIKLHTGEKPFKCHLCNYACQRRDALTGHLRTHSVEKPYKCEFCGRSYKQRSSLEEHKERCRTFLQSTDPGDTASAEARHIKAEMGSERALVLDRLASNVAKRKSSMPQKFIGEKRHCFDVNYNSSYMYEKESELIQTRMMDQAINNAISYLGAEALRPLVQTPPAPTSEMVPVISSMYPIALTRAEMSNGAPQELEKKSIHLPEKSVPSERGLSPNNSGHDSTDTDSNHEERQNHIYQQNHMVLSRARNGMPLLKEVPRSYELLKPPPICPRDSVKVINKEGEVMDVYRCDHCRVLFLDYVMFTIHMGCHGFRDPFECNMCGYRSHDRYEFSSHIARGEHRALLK
# T4 sequence (Q96SW2 whole entry): as the sequence (Q96SW2 whole entry) above
# T4 sequence (Q16531 whole entry partner): as the sequence (Q16531 whole entry partner) above
# CK1α = molecular target: T5, CK1α (Homo sapiens, UniProt P48729+Q96SW2); assay: Western-blot assay of substrate protein degradation in hPBMCs, CK1α; assay type: cell-based; settings: 24 hours of compound treatment, 50 nM and 500 nM tested (concentration behind the class not stated)
# T5 construct: endogenous in cells; host or cells: hPBMCs (Milecell Biotechnologies)
# T5 sequence (P48729 whole entry): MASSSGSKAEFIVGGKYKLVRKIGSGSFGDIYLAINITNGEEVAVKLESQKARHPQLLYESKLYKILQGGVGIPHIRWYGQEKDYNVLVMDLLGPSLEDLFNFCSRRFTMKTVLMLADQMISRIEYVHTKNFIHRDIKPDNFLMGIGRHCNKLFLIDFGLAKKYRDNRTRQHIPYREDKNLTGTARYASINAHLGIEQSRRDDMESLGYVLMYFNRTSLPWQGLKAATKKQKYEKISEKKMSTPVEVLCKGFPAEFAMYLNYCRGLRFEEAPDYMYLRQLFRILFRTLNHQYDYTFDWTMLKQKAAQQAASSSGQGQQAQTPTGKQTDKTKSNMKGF
# T5 sequence (Q96SW2 whole entry): as the sequence (Q96SW2 whole entry) above
# T5 sequence (Q16531 whole entry partner): as the sequence (Q16531 whole entry partner) above
# GSPT1 = molecular target: T6, GSPT1 (Homo sapiens, UniProt P15170+Q96SW2); assay: Western-blot assay of substrate protein degradation in hPBMCs, GSPT1; assay type: cell-based; settings: 24 hours of compound treatment, 50 nM and 500 nM tested (concentration behind the class not stated)
# T6 construct: endogenous in cells; host or cells: hPBMCs (Milecell Biotechnologies)
# T6 sequence (P15170 whole entry): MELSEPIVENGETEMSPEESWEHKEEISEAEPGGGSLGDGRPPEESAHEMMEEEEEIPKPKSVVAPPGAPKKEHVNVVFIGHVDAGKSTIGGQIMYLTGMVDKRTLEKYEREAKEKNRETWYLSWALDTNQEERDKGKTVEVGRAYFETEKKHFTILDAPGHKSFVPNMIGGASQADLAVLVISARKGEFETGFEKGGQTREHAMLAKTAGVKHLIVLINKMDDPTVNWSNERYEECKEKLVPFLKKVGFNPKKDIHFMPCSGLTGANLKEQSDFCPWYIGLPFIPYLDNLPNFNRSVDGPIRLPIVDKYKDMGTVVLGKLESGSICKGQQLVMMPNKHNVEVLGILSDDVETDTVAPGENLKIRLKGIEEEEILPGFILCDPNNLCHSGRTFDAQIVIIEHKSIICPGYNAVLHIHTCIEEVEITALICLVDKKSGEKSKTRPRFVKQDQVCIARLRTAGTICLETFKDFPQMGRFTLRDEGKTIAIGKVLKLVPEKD
# T6 sequence (Q96SW2 whole entry): as the sequence (Q96SW2 whole entry) above
# T6 sequence (Q16531 whole entry partner): as the sequence (Q16531 whole entry partner) above
# MV-4-11 = assay: Tumor cell proliferation inhibition (CellTiter-Meiluncell Luminescent Cell Viability Assay), MV-4-11; settings: Homo sapiens, MV4-11, read-out: inhibitory activity (IC50, nM) against tumor cells proliferation, MV-4-11
# Description: The tumor cells used herein were cultured in a cell culture medium listed in table 2 at 37°C in an incubator with 5% CO2. Prior to experimentation, all cell lines used were correctly identified by STR profiling, and tested negative for mycoplasma contamination using a mycoplasma detection kit through routine screenings.
# On the following day, the test compounds of the present disclosure were subjected to serial dilution. […] Subsequently, 0.5 µL of the test compound dilution was transferred into the 96-well plate containing the cells, with each well containing 100 µL of cell culture medium. […] Into the 96-well plate, the diluted test compounds and corresponding detection reagents were added, resulting in final test compound concentrations of 500 nM and 10 nM, respectively.
# After the cells were treated with the compounds of the present disclosure for a specified period (the treatment durations were shown in Table 3), the cell viability assay reagent was added to the culture medium according to the kit's instructions to determine cell viability. […] All controls were treated using the same procedure as the compounds of the present disclosure. The growth inhibition curves for the compounds of the present disclosure were plotted using Prism GraphPad software, and the IC50 values were calculated therefrom.
# [1] = molecular target: T7, human Cereblon WT GST-tagged protein (Homo sapiens, UniProt Q96SW2); assay: CRBN-binding affinity by HTRF (CEREBLON BINDING kit); settings: HTRF inhibitory activity, CEREBLON BINDING kit; read-out: HTRF IC50
# T7 construct: purchased CISBIO 64BDCRBNPEH
# T7 sequence (Q96SW2 whole entry): as the sequence (Q96SW2 whole entry) above
# T1 sequence (P30291 whole entry): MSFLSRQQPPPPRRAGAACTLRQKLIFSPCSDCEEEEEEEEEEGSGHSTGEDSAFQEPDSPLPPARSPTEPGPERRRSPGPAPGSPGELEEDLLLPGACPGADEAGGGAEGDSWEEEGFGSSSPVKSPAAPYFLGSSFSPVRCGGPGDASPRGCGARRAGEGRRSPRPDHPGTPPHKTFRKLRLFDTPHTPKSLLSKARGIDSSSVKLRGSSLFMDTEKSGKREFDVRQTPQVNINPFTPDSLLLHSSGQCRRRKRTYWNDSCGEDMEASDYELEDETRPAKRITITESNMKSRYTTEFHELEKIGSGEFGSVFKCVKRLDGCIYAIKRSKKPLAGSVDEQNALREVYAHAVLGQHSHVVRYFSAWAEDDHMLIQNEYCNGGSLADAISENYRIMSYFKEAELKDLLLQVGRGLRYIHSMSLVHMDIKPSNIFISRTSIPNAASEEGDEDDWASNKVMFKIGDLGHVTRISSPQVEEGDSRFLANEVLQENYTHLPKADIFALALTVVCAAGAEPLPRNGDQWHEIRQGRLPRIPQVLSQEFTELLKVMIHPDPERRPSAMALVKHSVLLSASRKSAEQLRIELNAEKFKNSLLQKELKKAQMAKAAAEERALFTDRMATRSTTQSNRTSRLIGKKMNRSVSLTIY
# T1 sequence (Q96SW2 whole entry): as the sequence (Q96SW2 whole entry) above
# T1 sequence (Q16531 whole entry partner): as the sequence (Q16531 whole entry partner) above
Structure (SMILES),Weel substrate protein remaining % (WEE1),IKZF 1 substrate protein remaining % (IKZF1),IKZF2 substrate protein remaining % (IKZF2),IKZF3 substrate protein remaining % (IKZF3),CK1a substrate protein remaining % (CK1α),GSPT1 substrate protein remaining % (GSPT1),IC50 (MV-4-11) [nM],IC50 [1] [nM]
"O=C1CCC(N2C(=O)c3ccc(CN4CCN(c5cc(Cl)nnc5Cl)CC4)cc3C2=O)C(=O)N1 (stereo not drawn) [GT-06625, 5-((4-(3,6-dichloropyridazin-4-yl)piperazin-1-yl)methyl)-2-(2,6-dioxopiperidin-3-yl)isoindoline-1,3-dione]",B (80%< substrate protein remaining %≤ 100%),B (80%< substrate protein remaining %≤ 100%),B (80%< substrate protein remaining %≤ 100%),B (80%< substrate protein remaining %≤ 100%),B (80%< substrate protein remaining %≤ 100%),A (0% ≤ substrate protein remaining % ≤ 80%),100 to 500,
"O=C1CCC(N2C(=O)c3ccc(CN4CCN(c5nsc6cc(F)ccc56)CC4)cc3C2=O)C(=O)N1 (stereo not drawn) [GT-06631, 2-(2,6-dioxopiperidin-3-yl)-5-((4-(6-fluorobenzo[d]isothiazol-3-yl)piperazin-1-yl)methyl)isoindoline-1,3-dione]",A (0% ≤ substrate protein remaining % ≤ 80%),B (80%< substrate protein remaining %≤ 100%),B (80%< substrate protein remaining %≤ 100%),B (80%< substrate protein remaining %≤ 100%),A (0% ≤ substrate protein remaining % ≤ 80%),A (0% ≤ substrate protein remaining % ≤ 80%),100 to 500,
"O=C1CCC(N2C(=O)c3ccc(CN4CCC(N5CCc6cc(F)ccc65)CC4)cc3C2=O)C(=O)N1 (stereo not drawn) [GT-06637, 2-(2,6-dioxopiperidin-3-yl)-5-((4-(5-fluoroindolin-1-yl)piperidin-1-yl)methyl)isoindoline-1,3-dione]",A (0% ≤ substrate protein remaining % ≤ 80%),A (0% ≤ substrate protein remaining % ≤ 80%),A (0% ≤ substrate protein remaining % ≤ 80%),A (0% ≤ substrate protein remaining % ≤ 80%),A (0% ≤ substrate protein remaining % ≤ 80%),A (0% ≤ substrate protein remaining % ≤ 80%),50 to 100,
"O=C1CCC(N2C(=O)c3ccc(CN4CCC(n5cnc6cc(F)ccc65)CC4)cc3C2=O)C(=O)N1 (stereo not drawn) [GT-06638, 2-(2,6-dioxopiperidin-3-yl)-5-((4-(5-fluoro-1H-benzo[d]imidazol-1-yl)piperidin-1-yl)methyl)isoindoline-1,3-dione]",A (0% ≤ substrate protein remaining % ≤ 80%),B (80%< substrate protein remaining %≤ 100%),B (80%< substrate protein remaining %≤ 100%),B (80%< substrate protein remaining %≤ 100%),A (0% ≤ substrate protein remaining % ≤ 80%),A (0% ≤ substrate protein remaining % ≤ 80%),500 to 1000,
"Cc1nc(C2=CCN(Cc3ccc4c(c3)C(=O)N(C3CCC(=O)NC3=O)C4=O)CC2)c2c3c(sc2n1)CCCC3 (stereo not drawn) [GT-06679, 2-(2,6-dioxopiperidin-3-yl)-5-((4-(2-methyl-5,6,7,8-tetrahydrobenzo[4,5]thieno[2,3-d]pyrimidin-4-yl)-3,6-dihydropyridin-1(2H)-yl)methyl)isoindoline-1,3-dione]",A (0% ≤ substrate protein remaining % ≤ 80%),B (80%< substrate protein remaining %≤ 100%),B (80%< substrate protein remaining %≤ 100%),A (0% ≤ substrate protein remaining % ≤ 80%),B (80%< substrate protein remaining %≤ 100%),B (80%< substrate protein remaining %≤ 100%),100 to 500,1500 to 1900
"O=C1CCC(N2C(=O)c3ccc(CN4CC=C(c5ncnc6sc7c(c56)CCC7)CC4)cc3C2=O)C(=O)N1 (stereo not drawn) [GT-06681, 5-((4-(6,7-dihydro-5H-cyclopenta[4,5]thieno[2,3-d]pyrimidin-4-yl)-3,6-dihydropyridin-1(2H)-yl)methyl)-2-(2,6-dioxopiperidin-3-yl)isoindoline-1,3-dione]",A (0% ≤ substrate protein remaining % ≤ 80%),A (0% ≤ substrate protein remaining % ≤ 80%),A (0% ≤ substrate protein remaining % ≤ 80%),A (0% ≤ substrate protein remaining % ≤ 80%),B (80%< substrate protein remaining %≤ 100%),A (0% ≤ substrate protein remaining % ≤ 80%),500 to 1000,1500 to 1900
"O=C1CCC(N2C(=O)c3ccc(CN4CCN(c5nc(N6CCOCC6)nc6c5SCC6)CC4)cc3C2=O)C(=O)N1 (stereo not drawn) [GT-06712, 2-(2,6-dioxopiperidin-3-yl)-5-((4-(2-morpholino-6,7-dihydrothieno[3,2-d]pyrimidin-4-yl)piperazin-1-yl)methyl)isoindoline-1,3-dione]",B (80%< substrate protein remaining %≤ 100%),B (80%< substrate protein remaining %≤ 100%),B (80%< substrate protein remaining %≤ 100%),B (80%< substrate protein remaining %≤ 100%),B (80%< substrate protein remaining %≤ 100%),A (0% ≤ substrate protein remaining % ≤ 80%),100 to 500,
"O=C1CCC(N2C(=O)c3ccc(CN4CCN(c5nc(N6CCOCC6)nc6ccsc56)CC4)cc3C2=O)C(=O)N1 (stereo not drawn) [GT-06717, 2-(2,6-dioxopiperidin-3-yl)-5-((4-(2-morpholinothieno[3,2-d]pyrimidin-4-yl)piperazin-1-yl)methyl)isoindoline-1,3-dione]",A (0% ≤ substrate protein remaining % ≤ 80%),A (0% ≤ substrate protein remaining % ≤ 80%),B (80%< substrate protein remaining %≤ 100%),B (80%< substrate protein remaining %≤ 100%),B (80%< substrate protein remaining %≤ 100%),A (0% ≤ substrate protein remaining % ≤ 80%),10 to 50,
"O=C1CCC(N2C(=O)c3ccc(CN4CCN(c5nc(N6CCOCC6)c6sccc6n5)CC4)cc3C2=O)C(=O)N1 (stereo not drawn) [GT-06718, 2-(2,6-dioxopiperidin-3-yl)-5-((4-(4-morpholinothieno[3,2-d]pyrimidin-2-yl)piperazin-1-yl)methyl)isoindoline-1,3-dione]",B (80%< substrate protein remaining %≤ 100%),B (80%< substrate protein remaining %≤ 100%),B (80%< substrate protein remaining %≤ 100%),B (80%< substrate protein remaining %≤ 100%),B (80%< substrate protein remaining %≤ 100%),A (0% ≤ substrate protein remaining % ≤ 80%),100 to 500,1000 to 1500
